Read-outs that look alike come from different tables or passages of the source.
Assays:
[1] = system: wild type HIV-1; test: Antiviral activity against wild type HIV-1 in P4/R5 cells; assay type: cell-based; details: Human immunodeficiency virus 1, compound alone, read-out: EC50 against replication
[2] = system: AZT-resistant HIV-1; test: Antiviral activity against AZT-resistant HIV-1 in P4/R5 cells; assay type: cell-based
Procedure: P4/R5 cells are plated in 96-well culture dishes at a cell density of 3×10^3 cells/well in 100 μl DMEM/10% fetal bovine serum. In one set of plates, bisphosphonate variants are added (25μM final concentration in FIG. 6) to individual wells. In another identical set of plates, bisphosphonate variants are added along with specific concentrations of AZT (0.1 μM final concentration in FIG. 6). Each well is inoculated with AZT-resistant HIV (multiplicity of infection=1), and the cells are incubated at 37° C. for 48 hours. The cells are then washed and the extent of HIV infection is determined fluorometrically. The percent inhibition of HIV replication is calculated as [1-(fluorescence signal of cells infected in the presence of bisphosphonate divided by the fluorescence signal of cells infected in the absence of any drug)] multiplied by 100.

[3] = target: TAM-mutant HIV-1 reverse transcriptase (UniProt P04585); assay type: biochemical; design: other: preferred BPH variants; details: read-out: Estimated IC50; preferred BPH variants; quantity inhibited not given
Procedure: (§1) An 18 nucleotide DNA oligonucleotide (“primer DNA”) of sequence 5′-[…]-3′ was 5′ end labeled using [y^32p]-ATP and T4 polynucleotide kinase. The labeled primer DNA was purified by polyacrylamide gel electrophoresis, and then annealed to a synthetic DNA oligonucleotide (“template DNA”) of the sequence 5′-[…] […]-3′, to form “template/primer DNA”. Template/primer DNA was then chain-terminated with AZTMP by incubating for 30 minutes at 37° C. with HIV-1 reverse transcriptase in 50 mM Tris-HCl, pH 7.8, containing 60 mM KCl, 10 mM MgCl2, and 100 μM AZTTP. The total incubation sample was then dried under reduced pressure and the [^32P]-labeled, 3′-AZTMP-terminated primer DNA (now 19 nucleotides in length) was purified by polyacrylamide gel electrophoresis. The purified [^32P]-labeled, 3′-AZTMP-terminated primer DNA was annealed to template DNA to form the nucleic acid excision substrate (termed “AZTMP-T/P”).
(§2) At various times thereafter, aliquots were removed and quenched by dilution into sequencing gel loading buffer (98% deionized formamide, 10 mM EDTA, and 1 mg/mL each of bromophenol blue and xylene cyanol). Samples were heated at 100° C. for 5 minutes then subjected to polyacylamide gel electrophoresis using 16% polyacrylamide/7 M urea gels. Electrophoretically resolved products were visualized and quantified by phosphorimaging analysis.
(§3) The [^32P]-labeled, 3′-AZTMP-terminated nucleic acid excision substrate (“AZTMP-T/P”) is made as described in Example 2. […] After 10 minutes (for reactions with ATP) or 5 minutes (for reactions with sodium pyrophosphate), the reactions are stopped by the addition of 2 volumes of sequencing gel loading buffer (98% deionized formamide, 10 mM EDTA, and 1 mg/ml each of bromophenol blue and xylene cyanol). An identical control reaction in which RT is omitted is also carried out simultaneously. Samples are heated at 100° C. for 5 minutes then subjected to polyacylamide gel electrophoresis using 16% polyacrylamide/7 M urea gels. Electrophoretically resolved products are visualized and quantified by phosphorimaging analysis. The percent excision is defined by the amount of the 19 nucleotide [^32P]-labeled, 3′-AZTMP-terminated primer DNA in the sample divided by the amount of the 19 nucleotide [^32P]-labeled, 3′-AZTMP-terminated primer DNA in the control, multiplied by 100.

[4] = target: TAM-mutant HIV-1 reverse transcriptase (UniProt P04585); assay type: biochemical; design: AZT-terminated DNA that had undergone excision; other: 20 micromolar 218A, 3 mM ATP, after 10 minutes; 65% without bisp; other: 5 micromolar bisphosphonate, 3 mM ATP, after 10 min; 65% without; details: for % Inhibition of AZT excision: BPH concentration not given
Procedure: as §1, §2, §3

SMILES	IC50 [3] [µM]	also measured
Cc1cn([C@H]2C[C@H](N=[N+]=[N-])[C@@H](CO)O2)c(=O)[nH]c1=O [AZT, 3′-azido-3′-deoxythymidine]		EC50 [1]: ~0.14 µM; EC50 ([2]; Human immunodeficiency virus 1, P4/R5, read-out: EC50 of AZT in the presence of 218A): > 0.025 µM; inhibition at 0.1 µM ([2]; Human immunodeficiency virus 1, P4/R5, 0.1 μM final concentration, alone, 48 hours, FIG. 6, read-out: percent inhibition of HIV replication): 2%; EC50 ([2]; Human immunodeficiency virus 1, compound alone, P4/R5 cells, read-out: EC50 against replication): ~1.2 µM
O=P(O)(O)C(Nc1ccc(Br)cn1)P(=O)(O)O [Compound 48B]	3.4	
O=P(O)(O)C(Nc1ccc2c(c1)CCC2)P(=O)(O)O [Compound 215A]	4.5	% Inhibition of AZT excision [4]: 75%
CCn1c2ccccc2c2cc(NC(P(=O)(O)O)P(=O)(O)O)ccc21 [Compound 228A]	4.1	% Inhibition of AZT excision [4]: 60%
O=P(O)(O)C(Nc1ccc(Cl)cc1Cl)P(=O)(O)O [Compound 244A]	8	
CC(C)c1cccc(NC(P(=O)(O)O)P(=O)(O)O)c1 [Compound 248A]	3.7	% Inhibition of AZT excision [4]: 59%
O=P(O)(O)C(O)(Cc1cccc(C(F)(F)F)c1)P(=O)(O)O [Compound 250A]	2.9	% Inhibition of AZT excision [4]: 68%
O=P(O)(O)C(O)(Cc1cccc(I)c1)P(=O)(O)O [Compound 251A]	3.4	
O=P(O)(O)C(O)(Cc1cccc(Cl)c1)P(=O)(O)O [Compound 253A]	3.1	% Inhibition of AZT excision [4]: 70%
O=P(O)(O)C(O)(Cc1cccc(Br)c1)P(=O)(O)O [Compound 255A]	1.8	% Inhibition of AZT excision [4]: 76%
O=[N+]([O-])c1cccc(CC(O)(P(=O)(O)O)P(=O)(O)O)c1 [Compound 256A]	2.5	% Inhibition of AZT excision [4]: 66%
O=P(O)(O)C(O)(Cc1cccc2ccccc12)P(=O)(O)O [Compound 257A]	1.35	
O=P(O)(O)C(Nc1cccc(Cc2ccccc2)c1)P(=O)(O)O [Compound 262A]	4.2	% Inhibition of AZT excision [4]: 66%
O=P(O)(O)C(O)(Cc1cccc(I)c1)P(=O)(O)O [Compound 279A]	1.1	
O=P(O)(O)C(Nc1cccc(CO)c1)P(=O)(O)O [Compound 280A]	7.9	
COCc1cccc(NC(P(=O)(O)O)P(=O)(O)O)c1 [Compound 281A]	9.5	
CN(C)Cc1cccc(CC(O)(P(=O)(O)O)P(=O)(O)O)c1 [Compound 289A]	8.3	
O=P(O)(O)C(Cn1cnc2ccccc21)P(=O)(O)O [Compound 298A]	13.5	
O=P(O)(O)C(Nc1cccc(Br)c1)P(=O)(O)O [Compound 302A]	1	
O=[N+]([O-])c1cccc(NC(P(=O)(O)O)P(=O)(O)O)c1 [Compound 304A]	2.7	
CC(C)CCNCC(P(=O)(O)O)P(=O)(O)O [Compound 311A]	15.5	

SMILES	IC50 [3] [µM]	also measured
O=P(O)(O)C(CNc1cccc(-c2ccccc2)c1)P(=O)(O)O [Compound 312A]	11.3	
O=P(O)(O)C(O)(Cc1cccc(-c2ccc(F)cc2)c1)P(=O)(O)O [Compound 313A]	1.9	
O=P(O)(O)C(O)(Cc1cccc(-c2ccc(Cl)cc2)c1)P(=O)(O)O [Compound 314A]	0.9	
COc1ccc(-c2cccc(CC(O)(P(=O)(O)O)P(=O)(O)O)c2)cc1 [Compound 315A]	2.4	
O=P(O)(O)C(Nc1cccc(-c2ccc(F)cc2F)c1)P(=O)(O)O [Compound 316A]	3.9	
O=P(O)(O)C(Nc1cccc(-c2cc(F)cc(F)c2)c1)P(=O)(O)O [Compound 317A]	2.1	
O=P(O)(O)C(O)(Cc1ccc(-c2ccc(F)cc2)cc1)P(=O)(O)O [Compound 325A]	2.9	
O=P(O)(O)C(O)(Cc1ccc(-c2ccc(Cl)cc2)cc1)P(=O)(O)O [Compound 326A]	3.9	
O=P(O)(O)C(Nc1cccc(-c2ccc(F)c(F)c2)c1)P(=O)(O)O [Compound 327A]	2.1	
O=P(O)(O)C(O)(CC12CC3CC(CC(C3)C1)C2)P(=O)(O)O [Compound 329A]	4.6	
O=P(O)(O)C(CNc1ccc(-c2ccccc2)cc1)P(=O)(O)O [Compound 331A]	4.6	
O=P(O)(O)C(Nc1ccc(Cc2ccccc2)cc1)P(=O)(O)O [Compound 332A]	3.5	
COc1ccc(-c2ccc(CC(O)(P(=O)(O)O)P(=O)(O)O)cc2)cc1 [Compound 333A]	5.2	
O=P(O)(O)C(O)(Cc1cccc(-c2cc(F)ccc2F)c1)P(=O)(O)O [Compound 334A]	1.5	
O=P(O)(O)C(O)(Cc1cccc(-c2ccc(F)c(F)c2)c1)P(=O)(O)O [Compound 336A]	1	
O=P(O)(O)C(O)(Cc1cccc(Oc2ccccc2)c1)P(=O)(O)O [Compound 339A]	3.3	
Cc1ccc(NC(P(=O)(O)O)P(=O)(O)O)cc1-c1ccccc1 [Compound 340A]	5	
COc1cccc(CC(O)(P(=O)(O)O)P(=O)(O)O)c1 [Compound 341A]	5.4	
O=P(O)(O)C(O)(Cc1ccc(Cl)c(Cl)c1)P(=O)(O)O [Compound 342A]	0.4	
O=C(O)P(=O)(O)O [Foscarnet, phosphonoformic acid, reference compound]		concentration dependence of inhibition of ATP-mediated excision of AZT ([4]; increasing concentration, FIG. 3): did not inhibit ATP-mediated excision of AZT as well as 218A

From US20050113331A1, “Compositions and methods for use of antiviral drugs in the treatment of retroviral diseases resistant to nucleoside reverse transcriptase inhibitors” (priority 2003, published 2005)
